Tests used:
SHP-1^−/− B cells = assay: adoptive transfer of autoreactive SHP-1-/- Ars/A1 B cells, loss of anergy; format: in vivo, mouse
Source text: Except where otherwise indicated, 6-16 week old mice were used in all experiments. Both male and female mice were used, but experiments were sex matched and both sexes gave identical results, with the exception of only female mice being used in the VH125.NOD experiments as female mice develop accelerated disease. hCD20-TamCre animals (Khalil, et al. Science 336: 1178-81) were intercrossed with mice carrying the rosa26-flox-STOP-YFP allele (Srinivas, et al., BMC Dev. Biol. 1:4), generating mice in which YFP is expressed in B cells upon Cre activation. These mice were crossed with Ars/A1 (Benschop, et al., Immunity 14: 33-43) transgenic mice to generate hCD20-TamCre×rosa26-flox-STOP-YFP×Ars/A1 mice. B cells from these mice will be referred to as WT Ars/A1. These mice were also crossed with SHIP-1^flox/flox mice (Karlsson, et al. J Exp Med 198: 333-40). hCD20-TamCre×rosa26-flox-STOP-YFP×Ars/A1 mice were also crossed to PTEN^flox/flox mice (Anzelon, et al., Nat Immunol 4: 287-94) and SHP-1^flox/flox mice to generate mice in which SHIP-1, PTEN and SHP-1 deletion can be induced in anergic B cells. hCD20-TamCre×rosa26-flox-STOP-YFP×PTEN^flox/flox×Ars/A1 were crossed to hCD20-TamCre×rosa26-flox-STOP-YFP×SHIP-1^flox/flox×Ars/A1 to generate hCD20-TamCre×rosa26-flox-STOP-YFPx PTEN^flox/wt×SHIP-1^flox/wt×Ars/A1 to allow for the double haploinsufficiency of both PTEN and SHIP-1 within B cells.
(§1) 2 hours before adoptive transfer, C57BL/6 recipient mice received 200 rads irradiation. […] B cells from donor mice were isolated via depletion of CD43+ cells with anti-CD43-conjugated magnetic beads (MACS anti-mouse CD43; Miltenyi Biotec). Alternatively, CD4+ T cells were isolated via CD4 positive selection (MACS anti-mouse CD4 (L3T4) Miltenyi Biotec). Resultant populations were >97% pure based on flow cytometric analyses. Donor B cells were labeled with either CellTrace Violet (Molecular Probes) or CFSE (Molecular Probes) at 5 μM for 5 minutes at room temperature prior to transfer. Donor CD4 T cells were labeled with CFSE (Molecular Probes) at 5 μM for 5 minutes at room temperature prior to transfer. 1-2×10^6 donor cells in 200 μl PBS were adoptively transferred via IV injection. 24 hours post transfer, tamoxifen was administered to activate Cre. Tamoxifen (Sigma-Aldrich) was dissolved in 100% corn oil (Sigma-Aldrich) at 20 mg/ml. Recipient mice were injected IP with 100 μl (2 mg) on two consecutive days.
(§2) Diet dose (DD) is calculated by multiplying the single daily dose (SD) by the body weight of a mouse (BW) and dividing that by the daily food intake (FI) [DD=(SD×BW)/FI].
(§3) For VH125.NOD experiments animals are placed on control chow immediately after weaning.
(§4) Spleens were mechanically disrupted, single-cell suspensions were generated, and red blood cells were lysed with ammonium chloride TRIS. Cells were resuspended in PBS containing 1% FBS and incubated with indicated antibodies. For analysis of cell surface markers, antibodies against the following molecules were used: B220-PE (BioLegend), B220-BV786 (BD Biosciences), B220-BV510 (BioLegend), CD4-BV711 (BioLegend), CD8-BV421 (BioLegend), CD138-PECy7 (BioLegend), CD69-BV786 (BD Biosciences), CD86-PerCPCy5.5 (BioLegend). After cell surface staining, the cells were fixed and permeabilized with Cytofix/Cytoperm (BD) per manufacturer's instructions and stained with Dylight650-E4 anti-Ars/A1 idiotype (produced and conjugated in our laboratory) OR HEL-650 (produced and conjugated in our laboratory) and Alexa Fluor 488-anti-GFP (rabbit polyclonal; Life Technologies). Events were collected on a CyAn ADP (Dako) and subsequent analysis using FlowJo software (Tree Star).
For detection of IgM^a anti-Ars antibodies, microtiter plates were coated with 10 μg/ml Ars-BSA16 in PBS and blocked with 2 mg/ml BSA in PBS 0.05% Tween-20. For detection of IgM^a anti-HEL antibodies, microtiter plates were coated with 10 μg/ml HEL in PBS and blocked with 2 mg/ml BSA in PBS 0.05% Tween-20. […]

MD4 B cells = assay: MD4 B cell adoptive transfer, response to HEL-SRBC immunization; format: in vivo, mouse
Protocol: as §1, §2, §3
HEL conjugated to SRBCs was used to produce antigen for experiments with MD4 B cells. SRBCs (Colorado Serum Company) were stored in Alsever's solution at 4° C. SRBCs are washed 3 times in PBS prior to use. 1 ml of 50 mg/ml of the chemical crosslinker N-(3-Dimethylaminopropyl)-N-ethylcarbodiimide hydrochloride (Sigma-Aldrich) was added to 1 ml packed SRBCs and 15 ml of 5 mg/ml HEL (Sigma-Aldrich), mixed and rotated at room temperature for 45 minutes. Mice were immunized IP with 200 μl of a 5% HEL-SRBC in PBS. For NP4Ova-Alum immunizations, 10 mg/ml alum and 5 mg/ml NP4Ova were mixed to a final concentration of 250 μg/ml NP4Ova and 2.5 mg/ml alum and rotated for 3 hours at room temperature. […] Mice were then immunized with NP4Ova-alum IP in 200 μl/mouse, and responses were measured on day 7 and day 14 post-immunization.
as §4
For detection of IgM^a anti-Ars antibodies, microtiter plates were coated with 10 μg/ml Ars-BSA16 in PBS and blocked with 2 mg/ml BSA in PBS 0.05% Tween-20. For detection of IgM^a anti-HEL antibodies, microtiter plates were coated with 10 μg/ml HEL in PBS and blocked with 2 mg/ml BSA in PBS 0.05% Tween-20. For detection of total NP-specific IgM and IgG, microtiter plates were coated with 20 μg/ml NP27BSA and blocked with 2 mg/ml BSA in PBS 0.05% Tween-20. For detection of high affinity NP-specific IgM and IgG, microtiter plates were coated with 20 μg/ml NP2BSA and blocked with 2 mg/ml BSA in PBS 0.05% Tween-20. Serial dilutions of mouse serum in PBS were added and incubated overnight at 4° C. Ars/A1-derived IgM^a antibodies and MD4-derived HEL IgM^a antibodies were detected with biotinylated DS.1 anti-IgM^a (BD Pharmingen) in PBS, followed by Streptavidin-HRP (Thermo Fisher Scientific). […]

[1] = 0.9375 mg/kg or 3.75 mg/kg chow vs vehicle
[2] = 0.9375 mg/kg chow vs vehicle control, 5 days post immunization
[3] = 3.75 mg/kg and 30 mg/kg chow vs vehicle control, 5 days post immunization

`CC[C@H](Nc1ncnc2nc[nH]c12)c1nc2cccc(F)c2c(=O)n1-c1ccccc1` [idelalisib, 5-fluoro-3-phenyl-2-[(1S)-1-(7H-purin-6-ylamino)propyl]-4(3H)-quinazolinone] was tested, and the “differentiation of SHP-1−/− B cells (plasmablasts)” value (SHP-1^−/− B cells; [1]) was “equivalent amounts”, the “proliferation of SHP-1−/− B cells” value (SHP-1^−/− B cells; [1]) was “equivalent amounts” and the “differentiation of SHP-1−/− B cells (plasmablasts)” value (SHP-1^−/− B cells; 30 mg/kg chow) was “decreased”. The “proliferation of SHP-1−/− B cells” value (SHP-1^−/− B cells; 30 mg/kg chow) was “decreased”, the “recovery of adoptively transferred SHP-1−/− B cells from the spleens (trend of reduced recovery)” value (SHP-1^−/− B cells; animals receiving idelalisib-containing chow) was “not significant” and the “autoimmunity (autoantibody, ASCs)” value (SHP-1^−/− B cells; high dose (30 mg/kg chow)) was “blocked”. For the same compound, the “loss of anergy caused by SHP-1 induced deficiency (autoantibody, ASCs)” value (SHP-1^−/− B cells; low and intermediate dose (0.9375 and 3.75 mg/kg chow)) was “no effect”, the “HEL-specific ASCs/spleen” value (MD4 B cells; [2]) was “equivalent” and the “IgM anti-HEL antibody response” value (MD4 B cells; [2]) was “equivalent”. The “proliferation of recovered MD4 B cells” value (MD4 B cells; 3.75 mg/kg and 30 mg/kg chow) was “proliferated less than in controls”, the “recoverable transferred MD4 B cells in the spleen” value (MD4 B cells; 3.75 mg/kg and 30 mg/kg chow) was “significant decreases” and the “IgM anti-HEL antibody response” value (MD4 B cells; [3]) was “significantly reduced”. The “number of ASCs/spleen” value (MD4 B cells; [3]) was “reduced”.
